Patent US10738056B2 (Aduro BioTech, Inc., priority 2017, dated 2020)

Target: Human cGAS amino acids 155-522 (Homo sapiens (Human), UniProt Q8N884)
Assay: cGAS biochemical activity assay (ATP remaining, Kinase-Glo Max luminescence)
Conditions: human cGAS 155-522, ATP remaining (Kinase-Glo Max); read-out: cGAS IC50

Sequence of Human cGAS amino acids 155-522 (Q8N884 157-522): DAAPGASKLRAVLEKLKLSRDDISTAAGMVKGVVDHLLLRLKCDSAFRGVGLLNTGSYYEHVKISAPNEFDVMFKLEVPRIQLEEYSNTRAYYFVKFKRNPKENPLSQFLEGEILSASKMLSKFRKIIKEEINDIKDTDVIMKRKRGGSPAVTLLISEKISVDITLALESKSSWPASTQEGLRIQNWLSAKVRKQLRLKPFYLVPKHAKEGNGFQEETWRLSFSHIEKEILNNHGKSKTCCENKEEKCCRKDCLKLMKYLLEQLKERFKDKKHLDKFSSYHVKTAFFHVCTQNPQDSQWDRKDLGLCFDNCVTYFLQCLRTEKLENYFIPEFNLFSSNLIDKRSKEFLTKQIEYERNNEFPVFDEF

SMILES | IC50 [µM]
COc1cccc2oc(-c3c(C)[nH]c4c(-c5ccccc5)nnn4c3=O)nc12 [Compound E1001, 6-(4-methoxybenzo[d]oxazol-2-yl)-5-methyl-3-phenyl-[1,2,3]triazolo[1,5-a]pyrimidin-7(4H)-one] | < 20
Cc1[nH]c2c(-c3ccccc3)c(C(F)(F)F)nn2c(=O)c1-c1nnc(C2COCCN2C(=O)OCc2ccccc2)o1 (stereo not shown) [Compound D1039, benzyl 3-(5-(5-methyl-7-oxo-3-phenyl-2-(trifluoromethyl)-4,7-dihydropyrazolo[1,5-a]pyrimidin-6-yl)-1,3,4-oxadiazol-2-yl)morpholine-4-carboxylate] | 20 to 250
Cc1[nH]c2c(-c3ccccc3)c(C(F)(F)F)nn2c(=O)c1-c1cccnc1 [Compound C1003, 5-methyl-3-phenyl-6-(pyridin-3-yl)-2-(trifluoromethyl)pyrazolo[1,5-a]pyrimidin-7(4H)-one] | 20 to 250
Cc1[nH]c2c(-c3ccccc3)c(C(F)(F)F)nn2c(=O)c1C(=O)N1CCCCC1 [Compound A1011, 5-methyl-3-phenyl-6-(piperidine-1-carbonyl)-2-(trifluoromethyl)pyrazolo[1,5-a]pyrimidin-7(4H)-one] | > 250
COc1cccc2oc(-c3c(C)[nH]c4c(-c5ccc(C#N)cc5)c(C(F)(F)F)nn4c3=O)nc12 [Compound C1164, 4-(6-(4-methoxybenzo[d]oxazol-2-yl)-5-methyl-7-oxo-2-(trifluoromethyl)-4,7-dihydropyrazolo[1,5-a]pyrimidin-3-yl)benzonitrile] | > 250
Cc1[nH]c2c(-c3ccccc3)c(C(F)(F)F)nn2c(=O)c1-c1nnc(N2CCCC(CN)C2)o1 (stereo not shown) [Compound D1083, 6-(5-(3-(aminomethyl)piperidin-1-yl)-1,3,4-oxadiazol-2-yl)-5-methyl-3-phenyl-2-(trifluoromethyl)pyrazolo[1,5-a]pyrimidin-7(4H)-one] | 20 to 250
Cc1[nH]c2c(-c3ccccc3)c(C(F)(F)F)nn2c(=O)c1-c1nnc(N2CCCCC2CCNS(C)(=O)=O)o1 (stereo not shown) [Compound D1073, N-(2-(1-(5-(5-methyl-7-oxo-3-phenyl-2-(trifluoromethyl)-4,7-dihydropyrazolo[1,5-a]pyrimidin-6-yl)-1,3,4-oxadiazol-2-yl)piperidin-2-yl)ethyl)methanesulfonamide] | < 20
COc1ccnc(-c2nnc(-c3c(C)[nH]c4c(-c5ccccc5)c(C(F)(F)F)nn4c3=O)o2)n1 [Compound D1076, 6-(5-(4-methoxypyrimidin-2-yl)-1,3,4-oxadiazol-2-yl)-5-methyl-3-phenyl-2-(trifluoromethyl)pyrazolo[1,5-a]pyrimidin-7(4H)-one] | 20 to 250
Cc1[nH]c2c(-c3ccccc3)c(C#N)nn2c(=O)c1-c1nnc(C2CCCCC2)o1 [Compound D1089, 6-(5-cyclohexyl-1,3,4-oxadiazol-2-yl)-5-methyl-7-oxo-3-phenyl-4,7-dihydropyrazolo[1,5-a]pyrimidine-2-carbonitrile] | < 20
COc1cccc2oc(-c3c(C)[nH]c4c(-c5c(F)cccc5F)c(C(F)(F)F)nn4c3=O)nc12 [Compound C1133, 3-(2,6-difluorophenyl)-6-(4-methoxybenzo[d]oxazol-2-yl)-5-methyl-2-(trifluoromethyl)pyrazolo[1,5-a]pyrimidin-7(4H)-one] | 20 to 250
COc1cccc2oc(-c3c(C)[nH]c4c(-c5ccccn5)c(C(F)(F)F)nn4c3=O)nc12 [Compound C1127, 6-(4-methoxybenzo[d]oxazol-2-yl)-5-methyl-3-(pyridin-2-yl)-2-(trifluoromethyl)pyrazolo[1,5-a]pyrimidin-7(4H)-one] | 20 to 250
COc1cccc(NC(=O)c2c(C)[nH]c3c(-c4ccccc4)c(C4CC4)nn3c2=O)c1 [Compound A1123, 2-cyclopropyl-N-(3-methoxyphenyl)-5-methyl-7-oxo-3-phenyl-4,7-dihydropyrazolo[1,5-a]pyrimidine-6-carboxamide] | > 250
Cc1[nH]c2c(-c3ccccc3)c(C(F)(F)F)nn2c(=O)c1-c1nnc(-c2ccccc2)o1 [Compound D1011, 5-methyl-3-phenyl-6-(5-phenyl-1,3,4-oxadiazol-2-yl)-2-(trifluoromethyl)pyrazolo[1,5-a]pyrimidin-7(4H)-one] | > 250
Cc1[nH]c2c(-c3ccccc3)c(C(F)(F)F)nn2c(=O)c1-c1ccncc1 [Compound C1001, 5-methyl-3-phenyl-6-(pyridin-4-yl)-2-(trifluoromethyl)pyrazolo[1,5-a]pyrimidin-7(4H)-one] | 20 to 250
Cc1[nH]c2c(-c3ccccc3)c(C(F)(F)F)nn2c(=O)c1CC(=O)N1CCN(c2ccccc2)CC1 [Compound B1007, 5-methyl-6-(2-oxo-2-(4-phenylpiperazin-1-yl)ethyl)-3-phenyl-2-(trifluoromethyl)pyrazolo[1,5-a]pyrimidin-7(4H)-one] | > 250
COc1ccc(-c2nnc(-c3c(C)[nH]c4c(-c5ccccc5)c(C(F)(F)F)nn4c3=O)o2)cc1 [Compound D1002, 6-(5-(4-methoxyphenyl)-1,3,4-oxadiazol-2-yl)-5-methyl-3-phenyl-2-(trifluoromethyl)pyrazolo[1,5-a]pyrimidin-7(4H)-one] | > 250
Cc1[nH]c2c(-c3ccccc3)c(C(F)(F)F)nn2c(=O)c1C(=O)Nc1[nH]nc(C(F)(F)F)c1C(C)C [Compound A1058, N-(4-isopropyl-3-(trifluoromethyl)-1H-pyrazol-5-yl)-5-methyl-7-oxo-3-phenyl-2-(trifluoromethyl)-4,7-dihydropyrazolo[1,5-a]pyrimidine-6-carboxamide] | 20 to 250
Cc1[nH]c2c(-c3ccccc3)c(C#N)nn2c(=O)c1-c1ncco1 [Compound C1270, 5-methyl-6-(oxazol-2-yl)-7-oxo-3-phenyl-4,7-dihydropyrazolo[1,5-a]pyrimidine-2-carbonitrile] | < 20

Next, values leading:

IC50 [µM] | SMILES
20 to 250 | COc1nccnc1NC(=O)c1c(C)[nH]c2c(-c3ccccc3)c(C(F)(F)F)nn2c1=O [Compound A1097, N-(3-methoxypyrazin-2-yl)-5-methyl-7-oxo-3-phenyl-2-(trifluoromethyl)-4,7-dihydropyrazolo[1,5-a]pyrimidine-6-carboxamide]
20 to 250 | Cc1[nH]c2c(-c3ccccc3)c(C(F)(F)F)nn2c(=O)c1C(=O)Nc1cnccc1S(C)(=O)=O [Compound A1109, 5-methyl-N-(4-(methylsulfonyl)pyridin-3-yl)-7-oxo-3-phenyl-2-(trifluoromethyl)-4,7-dihydropyrazolo[1,5-a]pyrimidine-6-carboxamide]
20 to 250 | Cc1[nH]c2c(-c3ccccc3)c(C(F)(F)F)nn2c(=O)c1C1OC(=O)c2ccccc21 (stereo not shown) [Compound C1168, 5-methyl-6-(3-oxo-1,3-dihydroisobenzofuran-1-yl)-3-phenyl-2-(trifluoromethyl)pyrazolo[1,5-a]pyrimidin-7(4H)-one]
20 to 250 | COc1cccc(NC(=O)c2c(C)[nH]c3c(-c4ccccc4)c(C(F)(F)F)nn3c2=O)c1OC [Compound A1043, N-(2,3-dimethoxyphenyl)-5-methyl-7-oxo-3-phenyl-2-(trifluoromethyl)-4,7-dihydropyrazolo[1,5-a]pyrimidine-6-carboxamide]
< 20 | COCCNC(=O)c1[nH]c2c(-c3ccccc3)c(C(F)(F)F)nn2c(=O)c1-c1nc2c(OC)cccc2o1 [Compound C1142, 6-(4-methoxybenzo[d]oxazol-2-yl)-N-(2-methoxyethyl)-7-oxo-3-phenyl-2-(trifluoromethyl)-4,7-dihydropyrazolo[1,5-a]pyrimidine-5-carboxamide]
< 20 | COc1cncc(NC(=O)c2c(C)[nH]c3c(-c4ccccc4)c(C(F)(F)F)nn3c2=O)c1 [Compound A1094, N-(5-methoxypyridin-3-yl)-5-methyl-7-oxo-3-phenyl-2-(trifluoromethyl)-4,7-dihydropyrazolo[1,5-a]pyrimidine-6-carboxamide]
20 to 250 | Cc1[nH]c2c(-c3ccccc3)c(C(F)(F)F)nn2c(=O)c1C(=O)Nc1ccccc1C#N [Compound A1036, N-(2-cyanophenyl)-5-methyl-7-oxo-3-phenyl-2-(trifluoromethyl)-4,7-dihydropyrazolo[1,5-a]pyrimidine-6-carboxamide]
20 to 250 | COc1cccc2oc(-c3c(C(=O)N[C@H](CO)C(C)C)[nH]c4c(-c5ccccc5)c(C(F)(F)F)nn4c3=O)nc12 [Compound C1208, (S)-N-(1-hydroxy-3-methylbutan-2-yl)-6-(4-methoxybenzo[d]oxazol-2-yl)-7-oxo-3-phenyl-2-(trifluoromethyl)-4,7-dihydropyrazolo[1,5-a]pyrimidine-5-carboxamide]
20 to 250 | COc1ccc(NC(=O)c2c(C)[nH]c3c(-c4ccccc4)c(C(F)(F)F)nn3c2=O)cc1 [Compound A1001, N-(4-methoxyphenyl)-5-methyl-7-oxo-3-phenyl-2-(trifluoromethyl)-4,7-dihydropyrazolo[1,5-a]pyrimidine-6-carboxamide]
20 to 250 | COCc1[nH]c2c(-c3ccccc3)c(C(F)(F)F)nn2c(=O)c1C(=O)Nc1ccccc1OC [Compound A1042, 5-(methoxymethyl)-N-(2-methoxyphenyl)-7-oxo-3-phenyl-2-(trifluoromethyl)-4,7-dihydropyrazolo[1,5-a]pyrimidine-6-carboxamide]
20 to 250 | COc1cc(NC(=O)c2c(C)[nH]c3c(-c4ccccc4)c(C(F)(F)F)nn3c2=O)ccn1 [Compound A1087, N-(2-methoxypyridin-4-yl)-5-methyl-7-oxo-3-phenyl-2-(trifluoromethyl)-4,7-dihydropyrazolo[1,5-a]pyrimidine-6-carboxamide]
20 to 250 | Cc1[nH]c2c(-c3ccccc3)c(C(F)(F)F)nn2c(=O)c1-c1cccc(Cl)c1 [Compound C1004, 6-(3-chlorophenyl)-5-methyl-3-phenyl-2-(trifluoromethyl)pyrazolo[1,5-a]pyrimidin-7(4H)-one]
20 to 250 | COc1ccncc1NC(=O)c1c(C)[nH]c2c(-c3ccccc3)c(C(F)(F)F)nn2c1=O [Compound A1103, N-(4-methoxypyridin-3-yl)-5-methyl-7-oxo-3-phenyl-2-(trifluoromethyl)-4,7-dihydropyrazolo[1,5-a]pyrimidine-6-carboxamide]
